From patent US12545685B2 (Daiichi Sankyo Company, Limited, priority 2011, dated 2026)

Target: T1, Mdm2/p53 binding (GST-Mdm2 / His-p53) (Homo sapiens, UniProt Q00987, L33E)
T1 construct: Mdm2 partial protein having Mdm2 amino acids at positions 25 to 108
Assay: Mdm2/p53 binding assay (HTRF, His-p53 and GST-Mdm2)
Settings: His-p53 (aa 1-132) and GST-Mdm2 (aa 25-108, L33E) 6.25 nM each; 25°C, 1 hour; values given as ranges
Protocol: A protein dilution containing 6.25 nM each of His-p53 (fusion protein of a p53 partial protein having p53 amino acids at positions 1 to 132, with a histidine protein) and GST-Mdm2 (fusion protein of an Mdm2 partial protein having Mdm2 amino acids at positions 25 to 108 with leucine residue 33 substituted by glutamic acid, with glutathione transferase) proteins was prepared using a protein buffer solution (20 mM HEPES pH 7.4, 150 mM NaCl, 0.1% BSA). This protein dilution was added in an amount of 8 μl/well to a 384-well plate (384-well low volume NBC, Corning Inc., catalog No: 3676).
Next, a test compound was diluted with DMSO to produce a protein buffer solution containing 10% dilution, and this buffer solution was added in an amount of 4 μl/well to the plate.
Subsequently, a solution containing an XL665-labeled anti-His antibody (HTRF monoclonal anti-6HIS antibody labeled with XL665 (catalog No: 61HISXLB), Schering/Cisbio Bioassays) and a europium (Eu)-labeled anti-GST antibody (HTRF monoclonal anti-GST antibody labeled with europium cryptate, Schering/Cisbio Bioassays, catalog No: 61GSTKLB) at concentrations of 2.5 μg/ml and 0.325 μg/ml, respectively, was prepared using an antibody diluting buffer solution (20 mM HEPES pH 7.4, 150 mM NaCl, 0.1% BSA, 0.5 M KF). These dilutions were added in an amount of 8 μl/well (total reaction solution volume: 20 μl/well). Then the plate was incubated at 25° ° C. for 1 hour.
Time-resolved fluorescence at 620 and 665 nm was measured at an excitation wavelength of 320 nm using a plate reader (ARVOsx, PerkinElmer Co., Ltd. or PHERAstar, BMG LABTECH). Ratio (R) was calculated using the measured values (RFU 620 nm and RFU 665 nm) according to the following formula: […]
BI: measured value at 665 nm of reaction solution (only each buffer solution) nonsupplemented with each protein, the compound, and the antibodies
A and D: each measured value at 665 nm and 620 nm of reaction solution supplemented with only Eu-labeled anti-GST antibody solution
The R value calculated from the well supplemented with His-p53, GST-Mdm2, the test compound, and each antibody was defined as R (sample). The R value calculated from the well supplemented with His-p53, GST-Mdm2, and each antibody but without the test compound was defined as R (control). The R value calculated from the well supplemented with GST-Mdm2 the test compound, and each antibody but without His-p53 was defined as R (background). T/C was calculated from the formula shown below. An IC50 value for Mdm2/p53 binding was calculated by sigmoid fitting.

T1 sequence (Q00987 25-108 L33E): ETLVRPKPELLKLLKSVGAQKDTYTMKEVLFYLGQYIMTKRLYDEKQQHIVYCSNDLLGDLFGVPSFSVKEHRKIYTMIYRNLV

SMILES | IC50
CC1(C)CCC2(CC1)N[C@@H](C(=O)N[C@H]1CC[C@H](N3CC(O)C3)CC1)[C@H](c1cccc(Cl)c1F)[C@]21C(=O)Nc2cc(Cl)ccc21 (relative stereo) [Example 12, (3′R, 4′S,5′R)-6″-chloro-4′-(3-chloro-2-fluorophenyl)-N-[trans-4-(3-hydroxyazetidin-1-yl)cyclohexyl]-4,4-dimethyl-2″-oxo-1″,2″-dihydrodispiro[cyclohexane-1,2′-pyrrolidine-3′,3″-indole]-5′-carboxamide] | 1 to 50 nM
CNC(=O)c1cc(Cl)cc([C@H]2[C@H](C(=O)N[C@H]3CC[C@H](O)CC3)NC3(CCC(C)(C)CC3)[C@@]23C(=O)Nc2cc(Cl)ccc23)c1 (relative stereo) [Example 21, (3′R, 4′R, 5′R)-6″-chloro-4′-[3-chloro-5-(methylcarbamoyl)phenyl]-N-(trans-4-hydroxycyclohexyl)-4,4-dimethyl-2″-oxo-1″,2″-dihydrodispiro[cyclohexane-1,2′-pyrrolidine-3′,3″-indole]-5′-carboxamide] | 1 to 50 nM
CC1(C)CCC2(CC1)N[C@@H](C(=O)N[C@H]1CC[C@H](O)CC1)[C@H](c1cc(N)cc(Cl)c1)[C@]21C(=O)Nc2cc(Cl)ccc21 (relative stereo) [Example 36, (3′R, 4′R, 5′R)-4′-(3-amino-5-chlorophenyl)-6″-chloro-N-(trans-4-hydroxycyclohexyl)-4,4-dimethyl-2″-oxo-1″,2″-dihydrodispiro[cyclohexane-1,2′-pyrrolidine-3′,3″-indole]-5′-carboxamide] | 1 to 50 nM
CC1(C)CCC2(CC1)N[C@@H](C(=O)N[C@H]1CC[C@H](c3noc(=O)[nH]3)CC1)[C@H](c1cccc(Cl)c1F)[C@]21C(=O)Nc2nc(Cl)ccc21 (relative stereo) [Example 49, (3′R, 4′S,5′R)-6″-chloro-4′-(3-chloro-2-fluorophenyl)-4,4-dimethyl-2″-oxo-N-[trans-4-(5-oxo-4,5-dihydro-1,2,4-oxadiazol-3-yl)cyclohexyl]-1″,2″-dihydrodispiro[cyclohexane-1,2′-pyrrolidine-3′,3″-pyrrolo[2,3-b]pyridine]-5′-carboxamide] | 1 to 50 nM
CC1(C)CCC2(CC1)N[C@@H](C(=O)N[C@H]1CC[C@H](c3nnco3)CC1)[C@H](c1ccnc(Cl)c1F)[C@]21C(=O)Nc2cc(Cl)ncc21 (relative stereo) [Example 190] | 50 to 100 nM
CC(O)[C@@H]1CC[C@@H](NC(=O)[C@@H]2NC3(CCC(C)(C)CC3)[C@@]3(C(=O)Nc4nc(Cl)ccc43)[C@H]2c2ccnc(Cl)c2F)CO1 (single isomer, unassigned) [Example 75] | 1 to 50 nM
CC1(C)CCC2(CC1)N[C@@H](C(=O)N[C@H]1CO[C@H](CO)C(C)(O)C1)[C@H](c1ccnc(Cl)c1F)[C@]21C(=O)Nc2cc(Cl)ccc21 (single isomer, unassigned) [Example 85] | 1 to 50 nM
CC1(C)CCC2(CC1)N[C@@H](C(=O)N[C@@H]1CC[C@@H](C(C)(C)O)OC1)[C@H](c1ccnc(Cl)c1)[C@]21C(=O)Nc2cc(Cl)ccc21 [Example 10, (3′R, 4′R, 5′R)-6″-chloro-4′-(2-chloropyridin-4-yl)-N-[(3R,6S)-6-(1-hydroxy-1-methylethyl)tetrahydro-2H-pyran-3-yl]-4,4-dimethyl-2″-oxo-1″,2″-dihydrodispiro[cyclohexane-1,2′-pyrrolidine-3′,3″-indole]-5′-carboxamide] | 50 to 100 nM
CC1(C)CCC2(CC1)N[C@@H](C(=O)N[C@H]1CC[C@H](O)CC1)[C@H](c1cccc(Cl)c1F)[C@]21C(=O)Nc2cc(C#N)ccc21 [Example 15, (3′R, 4′S,5′R)-4′-(3-chloro-2-fluorophenyl)-6″-cyano-N-(trans-4-hydroxycyclohexyl)-4,4-dimethyl-2″-oxo-1″,2″-dihydrodispiro[cyclohexane-1,2′-pyrrolidine-3′,3″-indole]-5%-carboxamide] | 50 to 100 nM
COC(=O)c1cc(Cl)cc([C@H]2[C@H](C(=O)N[C@@H]3CC[C@@H](CO)OC3)NC3(CCC(C)(C)CC3)[C@@]23C(=O)Nc2cc(Cl)ccc23)c1 [Example 22, 1,5-Anhydro-2-[({(3′R, 4′R, 5′R)-6″-chloro-4′-[3-chloro-5-(methoxycarbonyl)phenyl]-4,4-dimethyl-2″-oxo-1″,2″-dihydrodispiro[cyclohexane-1,2′-pyrrolidine-3′,3″-indole]-5′-yl}carbonyl)amino]-2,3,4-trideoxy-D-erythro-hexitol] | 50 to 100 nM
CNC(=O)c1cc(Cl)cc([C@H]2[C@H](C(=O)N[C@@H]3CC[C@@H](CO)OC3)NC3(CCC(C)(C)CC3)[C@@]23C(=O)Nc2cc(Cl)ccc23)c1 [Example 27, 2, 5˜Anhydro-2-[({(3′R, 4′R, 5′R)-6″-chloro-4′-[3-chloro-5-(methylcarbamoyl)phenyl]-4,4-dimethyl-2″-oxo-1″,2″-dihydrodispiro[cyclohexane-1,2′-pyrrolidine-3′,3″-indole]-5′-yl}carbonyl)amino]-2,3,4-trideoxy-D-erythro-hexitol] | 1 to 50 nM
CC1(C)CCC2(CC1)N[C@@H](C(=O)N[C@H]1CC[C@@](O)(CO)CC1)[C@H](c1cccc(Cl)c1F)[C@]21C(=O)Nc2cc(Cl)ccc21 [Example 33, (3′R, 4′S,5′R)-6″-chloro-4′-(3-chloro-2-fluorophenyl)-N-[trans-4-hydroxy-4-(hydroxymethyl)cyclohexyl]-4,4-dimethyl-2″-oxo-1″,2″-dihydrodispiro[cyclohexane-1,2′-pyrrolidine-3′,3″-indole]-5′-carboxamide] | 1 to 50 nM
CC(=O)Nc1cc(Cl)cc([C@H]2[C@H](C(=O)N[C@H]3CC[C@H](O)CC3)NC3(CCC(C)(C)CC3)[C@@]23C(=O)Nc2cc(Cl)ccc23)c1 [Example 37, (3′R, 4′R, S′R)-4′-(3-acetamide-5-chlorophenyl)-6″-chloro-N-(trans-4-hydroxycyclohexyl)-4,4-dimethyl-2″-oxo-1″,2″-dihydrodispiro[cyclohexane-1,2′-pyrrolidine-3′,3″-indole]-5′-carboxamide] | 50 to 100 nM

Other lines, results leading:

IC50 | SMILES
50 to 100 nM | O=C(N[C@H]1CC[C@H](O)CC1)[C@@H]1NC2(CC(CF)(CF)C2)[C@@]2(C(=O)Nc3cc(Cl)ccc32)[C@H]1c1cccc(Cl)c1F (relative stereo) [Example 121, (3′R, 4′S,5′R)-6″-chloro-4′-(3-chloro-2-fluorophenyl)-3,3-bis(fluoromethyl)-N-(trans-4-hydroxycyclohexyl)-2″-oxo-1″,2″-dihydrodispiro[cyclobutane-1,2′-pyrrolidine-3′,3″-indole]-5′-carboxamide]
100 to 500 nM | CN(C)C(=O)[C@H]1CC[C@H](NC(=O)[C@@H]2NC3(CC(CF)(CF)C3)[C@@]3(C(=O)Nc4cc(Cl)ccc43)[C@H]2c2cc(F)cc(Cl)c2)CC1 (relative stereo) [Example 168, (3′R, 4′R, 5′R)-6″-chloro-4′-(3-chloro-5-fluorophenyl)-N-[trans-4-(dimethylcarbamoyl)cyclohexyl]-3,3-bis(fluoromethyl)-2″-oxo-1″,2″-dihydrodispiro[cyclobutane-1,2′-pyrrolidine-3′,3″-indole]-5′-carboxamide]
1 to 50 nM | CC1(C)CCC2(CC1)N[C@@H](C(=O)N[C@@H]1CC[C@@H](C(O)CO)OC1)[C@H](c1ccnc(Cl)c1F)[C@]21C(=O)Nc2cc(Cl)ccc21 (single isomer, unassigned) [Example 89]
1 to 50 nM | CC(O)[C@@H]1CC[C@@H](NC(=O)[C@@H]2NC3(CC(CF)(CF)C3)[C@@]3(C(=O)Nc4cc(Cl)ccc43)[C@H]2c2cccc(Cl)c2F)CO1 (single isomer, unassigned) [Example 146]
50 to 100 nM | CC(O)[C@@H]1CC[C@@H](NC(=O)[C@@H]2NC3(CC(CF)(CF)C3)[C@@]3(C(=O)Nc4cc(Cl)ccc43)[C@H]2c2cccc(Cl)c2F)CO1 (single isomer, unassigned) [Example 147]
50 to 100 nM | CC1(C)CCC2(CC1)N[C@@H](C(=O)N[C@@H]1C=C[C@@H](CO)OC1)[C@H](c1cccc(Cl)c1F)[C@]21C(=O)Nc2cc(Cl)ccc21 [Example 19, (3′R,4′S,5′R)-6″-chloro-4′-(3-chloro-2-fluorophenyl)-N-[(3R,6S)-6-(hydroxymethyl)-3,6-dihydro-2H-pyran-3-yl]-4,4-dimethyl-2″-oxo-1″,2″-dihydrodispiro[cyclohexane-1,2′-pyrrolidine-3′,3″-indole]-5′-carboxamide]
